EC50 data for 29 compounds are collected here from patent publication US20230295115A1, “SUBSTITUTED ISOQUINOLINYLMETHYL AMIDES, ANALOGUES THEREOF, AND METHODS USING SAME” (priority 2020, published 2023).

In one assay the test system is HBV rcDNA. Put plainly: HepDE19 assay with bDNA quantitation of HBV rcDNA. The assay is classed as cell-based, hepatitis B virus (HBV). The note with it: HepDE19 cells, 7 day incubation, rcDNA measured by Quantigene 2.0 bDNA assay, top concentration 25 μM; read-out: DE-19bDNA EC50. In a few lines:
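HepDE19 cells were switched to tetracycline-free medium and exposed to compound (0.5% DMSO final) for 7 days at 37° C. rcDNA was then quantified by bDNA with an HBV-specific probe set. In parallel, viability was read as ATP content (CellTiter-Glo) after 4 days on replicate plates.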
Regarding `CC(c1c[nH]c(=O)c2cc(F)c(F)cc12)N(C)C(=O)c1ccc(F)c(F)c1` (single isomer, unassigned) [Compound 138, N-(1-(6,7-Difluoro-1-oxo-1,2-dihydroisoquinolin-4-yl)ethyl)-3,4-difluoro-N-methylbenzamide], the EC50 is 0.45 µM.
In the case of `CC(c1c[nH]c(=O)c2cc(F)c(F)cc12)N(C)C(=O)c1ccc2c(ccn2C)c1` (single isomer, unassigned) [Compound 139, N-(1-(6,7-difluoro-1-oxo-1,2-dihydroisoquinolin-4-yl)ethyl)-N,1-dimethyl-1H-indole-5-carboxamide], the EC50 is greater than 25 µM.
With `CC(c1c[nH]c(=O)c2cc(F)c(F)cc12)N(C)C(=O)c1ccc2c(ccn2C)c1` (single isomer, unassigned) [Compound 140, N-(1-(6,7-difluoro-1-oxo-1,2-dihydroisoquinolin-4-yl)ethyl)-N,1-dimethyl-1H-indole-5-carboxamide], the EC50 was found to be 0.12 µM.
On the same count and under the same terms, the result for `CC(c1c[nH]c(=O)c2cc(F)c(F)cc12)N(C)C(=O)c1ccc2ccn(C)c2c1` (single isomer, unassigned) [Compound 141, N-(1-(6,7-Difluoro-1-oxo-1,2-dihydroisoquinolin-4-yl)ethyl)-N,1-dimethyl-1H-indole-6-carboxamide] reads greater than 25 µM.
With `CC(c1c[nH]c(=O)c2cc(F)c(F)cc12)N(C)C(=O)c1ccc2ccn(C)c2c1` (single isomer, unassigned) [Compound 142, N-(1-(6,7-Difluoro-1-oxo-1,2-dihydroisoquinolin-4-yl)ethyl)-N,1-dimethyl-1H-indole-6-carboxamide], the EC50 amounted to 0.39 µM.
Turning to `CC(c1cn(C)c(=O)c2cc(F)c(F)cc12)N(C)C(=O)c1ccc(Br)c(F)c1` (single isomer, unassigned) [Compound 161, 4-bromo-N-(1-(6,7-difluoro-2-methyl-1-oxo-1,2-dihydroisoquinolin-4-yl)ethyl)-3-fluoro-N-methylbenzamide], the EC50 was 3.09 µM.
`CC(c1cn(C)c(=O)c2cc(F)c(F)cc12)N(C)C(=O)c1ccc(Br)c(F)c1` (single isomer, unassigned) [Compound 162, 4-bromo-N-(1-(6,7-difluoro-2-methyl-1-oxo-1,2-dihydroisoquinolin-4-yl)ethyl)-3-fluoro-N-methylbenzamide]: the EC50 was determined as 0.03 µM.
Take `CC(c1cn(C)c(=O)c2cc(F)c(F)cc12)N(C)C(=O)c1ccc(C(F)(F)F)c(F)c1` (single isomer, unassigned) [Compound 166, N-(1-(6,7-difluoro-2-methyl-1-oxo-1,2-dihydroisoquinolin-4-yl)ethyl)-3-fluoro-N-methyl-4-(trifluoromethyl)benzamide]: the EC50 turned out to be 3.32 µM.
For `CC(c1cn(C)c(=O)c2cc(F)c(F)cc12)N(C)C(=O)c1ccc(Br)cc1` (single isomer, unassigned) [Compound 167, 4-bromo-N-(1-(6,7-difluoro-2-methyl-1-oxo-1,2-dihydroisoquinolin-4-yl)ethyl)-N-methylbenzamide], the EC50 came out at 2.32 µM.
In the case of `CC(c1cn(C)c(=O)c2cc(F)c(F)cc12)N(C)C(=O)c1ccc(Br)cc1` (single isomer, unassigned) [Compound 168, 4-bromo-N-(1-(6,7-difluoro-2-methyl-1-oxo-1,2-dihydroisoquinolin-4-y1)ethyl)-N-methylbenzamide], the EC50 was found to be 0.03 µM.
In the case of `COc1ncc(C(C)N(C)C(=O)c2cc3cc(F)c(F)cc3[nH]2)c2cc(F)c(F)cc12` (single isomer, unassigned) [Compound 169, N-(1-(6,7-Difluoro-1-methoxyisoquinolin-4-yl)ethyl)-5,6-difluoro-N-methyl-1H-indole-2-carboxamide], the EC50 came out at 0.13 µM.
The same measure, in the same setting: the result for `COc1ncc(C(C)N(C)C(=O)c2cc3cc(F)c(F)cc3[nH]2)c2cc(F)c(F)cc12` (single isomer, unassigned) [Compound 170, N-(1-(6,7-Difluoro-1-methoxyisoquinolin-4-yl)ethyl)-5,6-difluoro-N-methyl-1H-indole-2-carboxamide] reads 5.04 µM; that for `CC(c1cn(C)c(=O)c2cc(F)c(F)cc12)N(C)C(=O)c1cc2c(F)cccn2c1` (single isomer, unassigned) [Compound 171, N-(1-(6,7-difluoro-2-methyl-1-oxo-1,2-dihydroisoquinolin-4-yl)ethyl)-8-fluoro-N-methylindolizine-2-carboxamide], 16.4 µM; that for `CC(c1cn(C)c(=O)c2cc(F)c(F)cc12)N(C)C(=O)c1cc2c(F)cccn2c1` (single isomer, unassigned) [Compound 172, N-(1-(6,7-difluoro-2-methyl-1-oxo-1,2-dihydroisoquinolin-4-yl)ethyl)-8-fluoro-N-methylindolizine-2-carboxamide], 0.09 µM.
Still for that read-out and setting: the result for `CC(c1cn(C)c(=O)c2cc(F)c(F)cc12)N(C)C(=O)c1cc2cc(F)c(F)cc2[nH]1` (single isomer, unassigned) [Compound 173, N-(1-(6,7-difluoro-2-methyl-1-oxo-1,2-dihydroisoquinolin-4-yl)ethyl)-5,6-difluoro-N-methyl-1H-indole-2-carboxamide] reads 2.12 µM.
Regarding `CC(c1cn(C)c(=O)c2cc(F)c(F)cc12)N(C)C(=O)c1cc2cc(F)c(F)cc2[nH]1` (single isomer, unassigned) [Compound 174, N-(1-(6,7-difluoro-2-methyl-1-oxo-1,2-dihydroisoquinolin-4-yl)ethyl)-5,6-difluoro-N-methyl-1H-indole-2-carboxamide], the EC50 was 0.05 µM.
Turning to `COc1ncc(C(C)N(C)C(=O)c2ccc(C(F)(F)F)c(F)c2)c2cc(F)c(F)cc12` (single isomer, unassigned) [Compound 175, N-(1-(6,7-Difluoro-1-methoxyisoquinolin-4-yl)ethyl)-3-fluoro-N-methyl-4-(trifluoromethyl)benzamide], the EC50 was 24.3 µM.
As for `COc1ncc(C(C)N(C)C(=O)c2ccc(C(F)(F)F)c(F)c2)c2cc(F)c(F)cc12` (single isomer, unassigned) [Compound 176, N-(1-(6,7-Difluoro-1-methoxyisoquinolin-4-yl)ethyl)-3-fluoro-N-methyl-4-(trifluoromethyl)benzamide], the EC50 turned out to be 0.56 µM.
`COc1ncc(C(C)N(C)C(=O)c2ccc(Br)c(F)c2)c2cc(F)c(F)cc12` (single isomer, unassigned) [Compound 177, 4-Bromo-N-(1-(6,7-difluoro-1-methoxyisoquinolin-4-yl)ethyl)-3-fluoro-N-methylbenzamide]: the EC50 came to 20.2 µM.
The same measure, in the same setting: the result for `COc1ncc(C(C)N(C)C(=O)c2ccc(Br)c(F)c2)c2cc(F)c(F)cc12` (single isomer, unassigned) [Compound 178, 4-Bromo-N-(1-(6,7-difluoro-1-methoxyisoquinolin-4-yl)ethyl)-3-fluoro-N-methylbenzamide] reads 0.2 µM; that for `COc1ncc(C(C)N(C)C(=O)c2cc3c(F)cccn3c2)c2cc(F)c(F)cc12` (single isomer, unassigned) [Compound 179, N-(1-(6,7-difluoro-1-methoxyisoquinolin-4-yl)ethyl)-8-fluoro-N-methylindolizine-2-carboxamide], 9.38 µM.
As for `COc1ncc(C(C)N(C)C(=O)c2cc3c(F)cccn3c2)c2cc(F)c(F)cc12` (single isomer, unassigned) [Compound 180, N-(1-(6,7-difluoro-1-methoxyisoquinolin-4-yl)ethyl)-8-fluoro-N-methylindolizine-2-carboxamide], the EC50 was 0.24 µM.
On to `COc1ncc(C(C)N(C)C(=O)[C@@H]2Cc3ccccc3N2)c2cc(F)c(F)cc12` (single isomer, unassigned) [Compound 181], for which the EC50 was 0.29 µM.
For `COc1ncc(C(C)N(C)C(=O)[C@@H]2Cc3ccccc3N2)c2cc(F)c(F)cc12` (single isomer, unassigned) [Compound 182], the EC50 worked out at 24.7 µM.
The same measure, in the same setting: the result for `CC(c1c[nH]c(=O)c2cc(F)c(F)cc12)N(C)C(=O)C1Cc2cc(F)ccc2N1` (centres unmarked) [Compound 61, N-(1-(6,7-Difluoro-1-oxo-1,2-dihydroisoquinolin-4-yl)ethyl)-5-fluoro-N-methylindoline-2-carboxamide] reads 6.7 µM.

The assay is the same for the next values; noted with them: Hepatitis B virus, HepDE19, 168 h, HepDE19 cells, 7 day incubation, rcDNA measured by Quantigene 2.0 bDNA assay, top concentration 25 μM; read-out: DE-19bDNA EC50.
Take `CC(c1cn(C)c(=O)c2cc(F)c(F)cc12)N(C)C(=O)c1ccc(C(F)(F)F)c(F)c1` (single isomer, unassigned) [Compound 165, N-(1-(6,7-difluoro-2-methyl-1-oxo-1,2-dihydroisoquinolin-4-yl)ethyl)-3-fluoro-N-methyl-4-(trifluoromethyl)benzamide]: the EC50 was 2.34 µM.

Still in this assay, the particulars now being: Hepatitis B virus, HepDE19, 168 h, read-out: DE-19bDNA EC50 (μM), HepDE19 cells, 7 day incubation, rcDNA measured by Quantigene 2.0 bDNA assay, top concentration 25 μM.
Regarding `C[C@H](c1c[nH]c(=O)c2cc(F)c(F)cc12)N(C)C(=O)c1cc2c([nH]1)CCCC2` [Compound 34, (R)-N-(1-(6,7-Difluoro-1-oxo-1,2-dihydroisoquinolin-4-yl)ethyl)-N-methyl-4,5,6,7-tetrahydro-1H-indole-2-carboxamide], the EC50 is 0.05 µM.

The assay is the same for the next values; noted with them: read-out: DE-19bDNA EC50; HepDE19 cells, 7 day incubation, rcDNA measured by Quantigene 2.0 bDNA assay, top concentration 25 μM.
For `COc1ncc(C(C)N(C)C(=O)c2ccc(Br)cc2)c2cc(F)c(F)cc12` (single isomer, unassigned) [Compound 163, 4-Bromo-N-(1-(6,7-difluoro-1-methoxyisoquinolin-4-yl)ethyl)-N-methylbenzamide], the EC50 stood at 0.44 µM.
`COc1ncc(C(C)N(C)C(=O)c2ccc(Br)cc2)c2cc(F)c(F)cc12` (single isomer, unassigned) [Compound 164, 4-Bromo-N-(1-(6,7-difluoro-1-methoxyisoquinolin-4-yl)ethyl)-N-methylbenzamide]: the EC50 was 17.2 µM.
